According to US10611750B2, “Tetrahydroquinoline compositions as bet bromodomain inhibitors” (FORMA Therapeutics, Inc., priority 2013, dated 2020):
pIC50: −log10 of the molar value.

Experiments:
[1] = system: acute myelocytic leukemia (AML) cell line MV4-11; assay: Oncology cell growth assay (3-day proliferation, CellTiter-Glo); assay type: cell-based; conditions: Homo sapiens, MV4-11, 72 h, MV4-11 cells, 3000 cells/well, compounds listed under IC50 range headings, read-out: MV411 IC50 (gIC50, inhibition of proliferation)
Procedure: The impact of Example compounds on cancer cell proliferation was determined using the acute myelocytic leukemia (AML) cell line MV4-11 (ATCC) in a 3-day proliferation assay. MV4-11 cells were maintained in RPMI 1640 media supplemented with 10% FBS at 37° C. and an atmosphere of 5% CO2. For compound testing, compound dilutions series were prepared in DMSO via a 3-fold serial dilution from 2 mM to 0.001 mM in 384-well white flat bottom plates. The final compound concentrations in the wells were 10, 3.3, 1.1, 0.37, 0.12, 0.041, 0.013 and 0.0045 μM. MV4-11 cells were plated at a density of 3000 cells/well in final volume of 50 μl culture media and incubated for 72 hours. […] Luminescent signal from the CellTiter-Glo assay was read on an EnVision multilabel plate reader (PerkinElmer). Values for the concentration that inhibited cell growth by 50% (gIC50) between the DMSO control and background control (no cells) were determined using IDBS Activity Base software with a four parameter logistic curve fit by the equation y=A+((B−A)/(1+((C/x)^D))), wherein A denotes the bottom plateau of the curve, B denotes the top plateau of the curve, C denotes the x value at the middle of the curve, D denotes the slope factor, x denotes the original known x values, and y denotes the original known y values. Data was fitted using the Levenburg Marquardt algorithm.

[2] = target: T1, BRD4 Bromodomain 1 (BRD4 BD1) (Homo sapiens, UniProt O60885); assay: AlphaScreen binding assay, BRD4 BD1; conditions: His-tagged BRD4 BD1 50 nM, biotinylated H4 (1-21) K5/8/12/16 tetra-acetylated peptide 50 nM, compounds listed under IC50 range headings
T1 construct: 44-168 and BRD4 BD2
Procedure: The binding of Example compounds to BRD4 Bromodomain 1 and BRD4 Bromodomain 2 was assessed using 384-well AlphaScreen assay technology. His-epitope tagged BRD4 BD144-168 and BRD4 BD2333-460 were cloned, expressed, and purified to homogeneity. BRD4 BD1 and BRD4 BD2 binding and inhibition was assessed by monitoring the engagement of biotinylated Histone H4 (1-21) K5/8/12/16 tetra-acetylated peptide with the targets using the AlphaScreen technology (PerkinElmer). Specifically, in a 384-well black or white flat bottom plate, BRD4 BD1 (50 nM final) or BRD4 BD2 (100 nM final) was combined with peptide (50 nM final for BD1 or 100 nM final for BD2) in 50 mM HEPES (pH 7.3), 100 mM NaCl, 0.1% (w/v) BSA, and 0.01% (w/v) Triton X-100 either in the presence of DMSO (final 1.25% DMSO) or compound dilution series in DMSO. Alpha streptavidin donor beads and Nickel-chelate acceptor beads were added to a final concentration of 10 μg/ml each. After a minimum of 1 hour equilibration, plates were read on a BMG PHERAstar FS multi-label reader (BMG LabTech). The half maximal inhibitory concentration (IC50) values were calculated using IDBS Activity Base software with a four parameter logistic curve fit by the equation y=A+((B−A)/(1+((C/x)^D))), wherein A denotes the bottom plateau of the curve, B denotes the top plateau of the curve, C denotes the x value at the middle of the curve, D denotes the slope factor, x denotes the original known x values, and y denotes the original known y values. Data was fitted using the Levenburg Marquardt algorithm.

| pIC50 [1] | pIC50 [2] | Structure (SMILES) |
| --- | --- | --- |
| > 6.30 | 6.00 to 7.00 | COC(=O)N1c2ccc(-c3cnn(C4CC5CNCC5C4)c3)c(Oc3ccc(F)cc3)c2CC[C@@H]1C (stereo partly drawn) [I-186, (2S)-methyl 5-(4-fluorophenoxy)-2-methyl-6-(1-(octahydrocyclopenta[c]pyrrol-5-yl)-1H-pyrazol-4-yl)-3,4-dihydroquinoline-1(2H)-carboxylate] |
| > 6.30 | 6.00 to 7.00 | C[C@H]1CCc2c(ccc(-c3c[nH]nn3)c2Oc2ccccc2)N1C(=O)C1CC1 [I-187, (S)-cyclopropyl(2-methyl-5-phenoxy-6-(1H-1,2,3-triazol-4-yl)-3,4-dihydroquinolin-1(2H)-yl)methanone] |
| > 6.30 | 6.00 to 7.00 | COC(=O)N1c2ccc(-c3cnn(C4CNC4)c3)c(Oc3ccc(F)c(F)c3)c2CC[C@@H]1C [I-192, (S)-methyl 6-(1-(azetidin-3-yl)-1H-pyrazol-4-yl)-5-(3,4-difluorophenoxy)-2-methyl-3,4-dihydroquinoline-1(2H)-carboxylate] |
| > 6.30 | 6.00 to 7.00 | COC(=O)N1c2ccc(-c3cnn(C4CNC4)c3)c(Oc3ccccc3)c2CC[C@@H]1C [I-193, (S)-methyl 6-(1-(azetidin-3-yl)-1H-pyrazol-4-yl)-2-methyl-5-phenoxy-3,4-dihydroquinoline-1(2H)-carboxylate] |
| > 6.30 | 6.00 to 7.00 | COc1ccccc1Oc1c(-c2cnn(C3CCNCC3)c2)ccc2c1CC[C@H](C)N2C(=O)C1CC1 [I-194, (S)-cyclopropyl(5-(2-methoxyphenoxy)-2-methyl-6-(1-(piperidin-4-yl)-1H-pyrazol-4-yl)-3,4-dihydroquinolin-1(2H)-yl)methanone] |
| > 6.30 | 6.00 to 7.00 | COc1cccc(Oc2c(-c3cnn(C4CCNCC4)c3)ccc3c2CC[C@H](C)N3C(=O)C2CC2)c1 [I-195, (S)-cyclopropyl(5-(3-methoxyphenoxy)-2-methyl-6-(1-(piperidin-4-yl)-1H-pyrazol-4-yl)-3,4-dihydroquinolin-1(2H)-yl)methanone] |
| > 6.30 | 6.00 to 7.00 | COc1ccc(Oc2c(-c3cnn(C4CCNCC4)c3)ccc3c2CC[C@H](C)N3C(=O)C2CC2)cc1 [I-196, (S)-cyclopropyl(5-(4-methoxyphenoxy)-2-methyl-6-(1-(piperidin-4-yl)-1H-pyrazol-4-yl)-3,4-dihydroquinolin-1(2H)-yl)methanone] |
| > 6.30 | 6.00 to 7.00 | COC(=O)N1c2ccc(-c3cnn(C4CCNCC4)c3)c(Oc3ccccc3OC)c2CC[C@@H]1C [I-197, (S)-methyl 5-(2-methoxyphenoxy)-2-methyl-6-(1-(piperidin-4-yl)-1H-pyrazol-4-yl)-3,4-dihydroquinoline-1(2H)-carboxylate] |
| > 6.30 | 6.00 to 7.00 | COC(=O)N1c2ccc(-c3cnn(C4CCNCC4)c3)c(Oc3cccc(OC)c3)c2CC[C@@H]1C [I-198, (S)-methyl 5-(3-methoxyphenoxy)-2-methyl-6-(1-(piperidin-4-yl)-1H-pyrazol-4-yl)-3,4-dihydroquinoline-1(2H)-carboxylate] |
| > 6.30 | 6.00 to 7.00 | COC(=O)N1c2ccc(-c3cnn(C4CCNCC4)c3)c(Oc3ccc(OC)cc3)c2CC[C@@H]1C [I-199, (S)-methyl 5-(4-methoxyphenoxy)-2-methyl-6-(1-(piperidin-4-yl)-1H-pyrazol-4-yl)-3,4-dihydroquinoline-1(2H)-carboxylate] |
| > 6.30 | 6.00 to 7.00 | C[C@H]1CCc2c(ccc(-c3cnn(C4CCNCC4)c3)c2Oc2cccc(C#N)c2)N1C(=O)C1CC1 [I-202, (S)-3-(1-(cyclopropanecarbonyl)-2-methyl-6-(1-(piperidin-4-yl)-1H-pyrazol-4-yl)-1,2,3,4-tetrahydroquinolin-5-yloxy)benzonitrile] |
| > 6.30 | 6.00 to 7.00 | CC(=O)N1c2ccc(-c3cnn(C4CCNCC4)c3)c(Oc3ccccn3)c2CC[C@@H]1C [I-203, (S)-1-(2-methyl-6-(1-(piperidin-4-yl)-1H-pyrazol-4-yl)-5-(pyridin-2-yloxy)-3,4-dihydroquinolin-1(2H)-yl)ethanone] |
| > 6.30 | 6.00 to 7.00 | C[C@H]1CCc2c(Oc3ccccc3)c(-c3cnn(C4CCNCC4)c3)cc(F)c2N1C(=O)C1CC1 [I-204, (S)-cyclopropyl(8-fluoro-2-methyl-5-phenoxy-6-(1-(piperidin-4-yl)-1H-pyrazol-4-yl)-3,4-dihydroquinolin-1 (2H)-yl)methanone] |
| > 6.30 | 6.00 to 7.00 | COC(=O)N1c2c(F)cc(-c3cnn(C4CCNCC4)c3)c(Oc3ccccc3)c2CC[C@@H]1C [I-205, (S)-methyl 8-fluoro-2-methyl-5-phenoxy-6-(1-(piperidin-4-yl)-1H-pyrazol-4-yl)-3,4-dihydroquinoline-1(2H)-carboxylate] |
| > 6.30 | 6.00 to 7.00 | CC(=O)N1c2c(F)cc(-c3cnn(C4CCNCC4)c3)c(Oc3ccccc3)c2CC[C@@H]1C [I-206, (S)-1-(8-fluoro-2-methyl-5-phenoxy-6-(1-(piperidin-4-yl)-1H-pyrazol-4-yl)-3,4-dihydroquinolin-1 (2H)-yl)ethanone] |
| > 6.30 | 6.00 to 7.00 | COc1cccc(Oc2c(-c3cnn(C4CCNCC4)c3)cc(F)c3c2CC[C@H](C)N3C(=O)C2CC2)c1 [I-207, (S)-cyclopropyl(8-fluoro-5-(3-methoxyphenoxy)-2-methyl-6-(1-(piperidin-4-yl)-1H-pyrazol-4-yl)-3,4-dihydroquinolin-1(2H)-yl)methanone] |
| > 6.30 | 6.00 to 7.00 | C[C@H]1CCc2c(ccc(-c3cn(C)nn3)c2Oc2ccccc2)N1C(=O)C1CC1 [I-219, (S)-cyclopropyl(2-methyl-6-(1-methyl-1H-1,2,3-triazol-4-yl)-5-phenoxy-3,4-dihydroquinolin-1(2H)-yl)methanone] |
| > 6.30 | 5.00 to 6.00 | Cc1nnc(-c2ccc3c(c2Oc2ccccc2)CC[C@H](C)N3C(=O)C2CC2)s1 [I-220, (S)-cyclopropyl(2-methyl-6-(5-methyl-1,3,4-thiadiazol-2-yl)-5-phenoxy-3,4-dihydroquinolin-1(2H)-yl)methanone] |
| > 6.30 | 6.00 to 7.00 | C[C@H]1CCc2c(ccc(-c3cn(C)cn3)c2Oc2ccccc2)N1C(=O)C1CC1 [I-221, (S)-cyclopropyl(2-methyl-6-(1-methyl-1H-imidazol-4-yl)-5-phenoxy-3,4-dihydroquinolin-1(2H)-yl)methanone] |
| > 6.30 | 6.00 to 7.00 | COC(=O)N1c2ccc(-c3cnn(C4CCCS(=O)(=O)C4)c3)c(Oc3ccc(F)cc3)c2CC[C@@H]1C (stereo partly drawn) [I-222, Methyl (2S)-6-(1-(1,1-dioxidotetrahydro-2H-thiopyran-3-yl)-1H-pyrazol-4-yl)-5-(4-fluorophenoxy)-2-methyl-3,4-dihydroquinoline-1 (2H)-carboxylate] |
| > 6.30 | 6.00 to 7.00 | COC(=O)N1c2ccc(-c3cnn(C4CS(=O)(=O)C4)c3)c(Oc3ccc(F)cc3)c2CC[C@@H]1C [I-223, methyl (S)-6-(1-(1,1-dioxidothietan-3-yl)-1H-pyrazol-4-yl)-5-(4-fluorophenoxy)-2-methyl-3,4-dihydroquinoline-1(2H)-carboxylate] |
| > 6.30 | 6.00 to 7.00 | C[C@H]1CCc2c(ccc(-c3cnn(C4CS(=O)(=O)C4)c3)c2Oc2ccc(F)cc2)N1C(=O)C1CC1 [I-229, 3-[4-[(2S)-1-cyclopropanecarbonyl-5-(4-fluorophenoxy)-2-methyl-1,2,3,4-tetrahydroquinolin-6-yl]-1H-pyrazol-1-yl]-1λ^6-thietane-1,1-dione] |
| > 6.30 | 6.00 to 7.00 | C[C@H]1CCc2c(ccc(-c3cnn(C4CS(=O)(=O)C4)c3)c2Oc2ccccc2)N1C(=O)C1CC1 [I-230, 3-[4-[(2S)-1-cyclopropanecarbonyl-2-methyl-5-phenoxy-1,2,3,4-tetrahydroquinolin-6-yl]-1H-pyrazol-1-yl]-1λ^6-thietane-1,1-dione] |
